Some test systems named below: K-562 leukemia; HCT-15 colon; UACC-257 melanoma; UO-31 renal; NCI-H226 lung; RPMI-8226 leukemia; HS 578T breast; SK-MEL-5 melanoma; PC-3 prostate.
Common to all, as to experiment: NCI anticancer screen, dose series, 48 h

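How tested: cells in 96-well plates exposed to compound for 48 hours at five concentrations. TGI: concentration producing complete growth inhibition.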 Some results are limits rather than exact numbers.

Turning to `CN1C/C(=C\c2ccccc2)C2=NN(C(N)=S)[C@H](c3ccccc3)[C@@H]2C1`, the TGI with K-562 leukemia, in the experiment with HCT-15 colon, in the experiment with UACC-257 melanoma, in the experiment with UO-31 renal and in the experiment on NCI-H226 lung was over 100 µM in each case.
As to `CCN(CC)C(=O)Cc1[nH][nH]c(=O)c1C(=O)N(CC)CC`, the TGI with K-562 leukemia, in the experiment with HCT-15 colon, in the experiment on UACC-257 melanoma, in the experiment on UO-31 renal, in the experiment with RPMI-8226 leukemia and in the experiment with NCI-H226 lung was over 100 µM throughout.
Turning to `Cc1ccc(-c2ccc3c(c2)Sc2ccccc2O3)n1C`, the TGI in the experiment with HS 578T breast is over 100 µM; in the experiment on SK-MEL-5 melanoma, 39.1 µM; in the experiment on K-562 leukemia, over 100 µM; with HCT-15 colon, over 100 µM; in the experiment on UACC-257 melanoma, over 100 µM; in the experiment with UO-31 renal, over 68.5 µM. Besides, the TGI with RPMI-8226 leukemia is 0.706 µM; in the experiment on NCI-H226 lung, over 100 µM.
As to `CCOC(=O)CN(CC)C(=O)NC12CC3CC(CC(C3)C1)C2`, the TGI with SK-MEL-5 melanoma was 211 µM; with K-562 leukemia it was 683 µM; in the experiment with HCT-15 colon it was 646 µM; with UACC-257 melanoma, 433 µM; in the experiment with UO-31 renal it was 389 µM; with RPMI-8226 leukemia, 454 µM. In the experiment with NCI-H226 lung, this molecule gave a TGI of 480 µM.
For the molecule `CC(NC(CC12CC3CC(CC(C3)C1)C2)C(N)=O)c1ccccc1` (stereo not given), the TGI in the experiment with SK-MEL-5 melanoma is 26.3 µM; in the experiment with K-562 leukemia, 41.4 µM; with HCT-15 colon it was over 100 µM; with UACC-257 melanoma, 41.8 µM; in the experiment with UO-31 renal it was 51.4 µM; with RPMI-8226 leukemia it was 40.5 µM. The same molecule showed a TGI with PC-3 prostate of over 100 µM.
In the case of `CCCC(O)c1ccc2[nH]c3c(C)cc([N+](=O)[O-])c(C)c3c2c1` (stereo not given), the TGI with SK-MEL-5 melanoma, with K-562 leukemia, in the experiment on HCT-15 colon, in the experiment with UACC-257 melanoma, with UO-31 renal and with RPMI-8226 leukemia was over 100 µM in each case. The same molecule showed a TGI in the experiment on NCI-H226 lung of over 100 µM.
As to `COC(OC)c1cccc2c1C(=O)CCC1(CC2)OCCCCO1`, the TGI with SK-MEL-5 melanoma, in the experiment on K-562 leukemia, with HCT-15 colon, in the experiment with UACC-257 melanoma, in the experiment with UO-31 renal and with RPMI-8226 leukemia was over 100 µM each time. Further, the TGI in the experiment on NCI-H226 lung is over 100 µM.
In the case of `COc1ccc(N2C(=O)[C@@H]3[C@@H]4CC(C)CC[C@@H]4c4c([nH]c5ccccc45)[C@@H]3C2=O)cc1` (stereo not given in full), the TGI with SK-MEL-5 melanoma is over 100 µM; in the experiment on K-562 leukemia, over 100 µM; with HCT-15 colon, over 50.2 µM; in the experiment on UACC-257 melanoma, over 100 µM; with UO-31 renal it was over 55.9 µM; in the experiment on NCI-H226 lung it was 28.5 µM.
Consider `CCCOC(=O)CCC(NC(=O)c1ccc(Nc2nc3ccccc3nc2-c2cccs2)cc1)C(=O)OCCC` (stereo not given), for which the TGI in the experiment with SK-MEL-5 melanoma, in the experiment on K-562 leukemia, in the experiment with HCT-15 colon, in the experiment on UO-31 renal, in the experiment on RPMI-8226 leukemia and with NCI-H226 lung was over 100 µM in each case.
Regarding `COC1=CC(=O)[C@@]2(C)C(C)[C@H](c3ccccc3)[C@H]2C1=O` (stereo not given in full), the TGI in the experiment on SK-MEL-5 melanoma, in the experiment with K-562 leukemia, in the experiment on HCT-15 colon, in the experiment with UACC-257 melanoma, in the experiment on UO-31 renal and in the experiment on RPMI-8226 leukemia was over 100 µM in each case. Moreover, in the experiment on NCI-H226 lung, the TGI was over 100 µM.
Regarding `O=S(c1ccc(O)cc1)c1ccc(O)cc1`, the TGI with SK-MEL-5 melanoma, in the experiment with K-562 leukemia, with HCT-15 colon, with UACC-257 melanoma, in the experiment on UO-31 renal and in the experiment on RPMI-8226 leukemia was over 100 µM throughout. The same molecule yielded a TGI in the experiment with NCI-H226 lung of over 100 µM.
With `CC(=O)OC1CCC2(C)C(CCC3C2CCC2(C)C(c4ccc(=O)oc4)C(OC(C)=O)CC32O)C1` (stereo not given), the TGI in the experiment with SK-MEL-5 melanoma came out at 0.0216 µM; in the experiment with K-562 leukemia, 0.141 µM; with HCT-15 colon, 0.0313 µM; in the experiment with UACC-257 melanoma it was 0.115 µM; with UO-31 renal, 0.0712 µM; in the experiment with RPMI-8226 leukemia, 0.0595 µM. This molecule also came in with a TGI with NCI-H226 lung of 0.288 µM.
Consider `O=C1c2cccc3cc([N+](=O)[O-])cc(c23)C(=O)N1c1ccc(OCCN2CCCC2)cc1`, for which the TGI with HS 578T breast was over 100 µM; in the experiment on SK-MEL-5 melanoma it was 30.1 µM; in the experiment with HCT-15 colon, 44.5 µM; in the experiment on UACC-257 melanoma it was 36.1 µM; in the experiment on UO-31 renal, 27.1 µM; with NCI-H226 lung it was 24.2 µM. In the experiment on PC-3 prostate, this molecule yielded a TGI of over 100 µM.
Regarding `O=C1OCc2nc3c(c(-c4ccccc4C(F)(F)F)c21)C(=O)OC3`, the TGI with SK-MEL-5 melanoma, with K-562 leukemia, with HCT-15 colon, in the experiment with UACC-257 melanoma, in the experiment on UO-31 renal and in the experiment with RPMI-8226 leukemia was over 100 µM each time.
In the case of `O=C1C=C2SC3C[C@@]24CC1(O)[N+]1=c2c4c(c(O)c4c2=C(C=N4)CC1)N3`, the TGI came to 2.91 µM with SK-MEL-5 melanoma; 2.72 µM with K-562 leukemia; 3.92 µM with HCT-15 colon; 2.42 µM in the experiment with UACC-257 melanoma; 3.48 µM in the experiment on UO-31 renal; 1.62 µM in the experiment on RPMI-8226 leukemia. In addition, in the experiment on NCI-H226 lung, the TGI is 3.44 µM.

For the origin of these results see PubChem BioAssay (NCI).
